The results in this text go back to article PMC8667935, “Synthesis and biological evaluation of celastrol derivatives as potent antitumor agents with STAT3 inhibition” (Journal of Enzyme Inhibition and Medicinal Chemistry, 2021).

The structures appear in SMILES notation.

Experiment [1] has as its target T1, STAT3 (Homo sapiens, UniProt P40763).
T1 construct: recombinant human STAT3 protein (rhSTAT3)
As to the kind of experiment: SPR (Biacore T200, STAT3 amine-coupled to CM5 chip). It counts as binding.

In experiment [2] the target is T1, STAT3. As to the kind of experiment: SPR (Biacore T200, STAT3 amine-coupled to CM5 chip); positive control measured by the authors. It counts as binding. A general note: In SPR one partner is held on a chip, and binding of the other changes the refractive index at the surface.

In general, Kd refers to the free concentration of one partner at which half of the binding sites on the other are occupied at equilibrium, for simple one-to-one binding.

T1 sequence (P40763 2-770): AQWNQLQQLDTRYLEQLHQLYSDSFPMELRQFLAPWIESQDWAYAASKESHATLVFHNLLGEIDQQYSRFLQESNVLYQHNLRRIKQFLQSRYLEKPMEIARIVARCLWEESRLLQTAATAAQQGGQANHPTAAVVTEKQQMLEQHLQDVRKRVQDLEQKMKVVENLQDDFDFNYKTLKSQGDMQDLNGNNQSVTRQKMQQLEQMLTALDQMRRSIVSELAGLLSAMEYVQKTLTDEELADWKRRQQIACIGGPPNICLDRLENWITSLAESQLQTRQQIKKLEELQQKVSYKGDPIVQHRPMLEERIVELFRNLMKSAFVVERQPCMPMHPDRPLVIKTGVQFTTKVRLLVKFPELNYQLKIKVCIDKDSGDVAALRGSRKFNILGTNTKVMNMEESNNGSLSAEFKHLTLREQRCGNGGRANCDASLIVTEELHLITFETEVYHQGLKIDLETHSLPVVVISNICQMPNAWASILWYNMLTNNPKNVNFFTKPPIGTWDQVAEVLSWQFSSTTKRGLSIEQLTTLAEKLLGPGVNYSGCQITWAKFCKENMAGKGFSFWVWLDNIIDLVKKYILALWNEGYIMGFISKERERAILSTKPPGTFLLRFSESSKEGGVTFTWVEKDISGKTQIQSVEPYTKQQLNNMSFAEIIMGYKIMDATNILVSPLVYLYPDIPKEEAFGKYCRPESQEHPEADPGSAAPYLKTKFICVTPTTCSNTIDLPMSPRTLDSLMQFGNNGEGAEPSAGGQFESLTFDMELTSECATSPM

`CC1=C(O)C(=O)C=C2C1=CC=C1[C@@]2(C)CC[C@@]2(C)[C@@H]3C[C@](C)(C(=O)NCCc4cccs4)CC[C@]3(C)CC[C@]12C` [4m, 3-Hydroxy-9β,13α-dimethyl-2-oxo-24,25,26-trinoroleana-1(10),3,5,7-tetraen-29-oic acid 2–(2-thienyl) ethylamide]: on STAT3 [1], binding was characterised by a dissociation constant (Kd) of 45.3 µM. `CC1=C(O)C(=O)C=C2C1=CC=C1[C@@]2(C)CC[C@@]2(C)[C@@H]3C[C@](C)(C(=O)O)CC[C@]3(C)CC[C@]12C` [CEL, Celastrol] yielded a Kd at STAT3 [2] of 60.4 µM.
